Experimental findings from PMC5218480 (PLoS ONE, 2017) are described below.

The test system of this test is MV-4-11 cells. The test is described as follows: Gene expression microarray analysis (Affymetrix PrimeView) and GSEA. Format: cell-based, human. Set-up: RFU PODN (11730768_x_at) / Fold change /veh PODN (11730768_x_at) / RFU LINC00158 (11744669_a_at) / Fold change /veh LINC00158 (11744669_a_at) / RFU DUSP10 (11751237_a_at) / Fold change /veh DUSP10 (11751237_a_at) / RFU ID3 (11757404_x_at) / Fold change /veh ID3 (11757404_x_at) / RFU PLEKHG5 (11737974_s_at) / Fold change /veh PLEKHG5 (11737974_s_at) / RFU LRRC4B (11730491_at) / Fold change /veh LRRC4B (11730491_at) / RFU GIMAP4 (11747438_a_at) / Fold change /veh GIMAP4 (11747438_a_at) / RFU KRT8 (11758183_x_at) / Fold change /veh KRT8 (11758183_x_at) / RFU CNN1 (11734310_a_at) / Fold change /veh CNN1 (11734310_a_at) / RFU VPS37D (11726825_at) / Fold change /veh VPS37D (11726825_at) / RFU C10orf10 (11716522_x_at) / Fold change /veh C10orf10 (11716522_x_at) / RFU KIR2DL2 /// KIR2DL4 /// KIR2DL5A /// KIR2DL5B /// KIR2DS1 /// KIR2DS2 /// KIR2DS3 /// KIR2DS4 /// KIR3DL3 /// KIR3DL3 /// KIR3DS1 (11738374_at) / Fold change /veh KIR2DL2 /// KIR2DL4 /// KIR2DL5A /// KIR2DL5B /// KIR2DS1 /// KIR2DS2 /// KIR2DS3 /// KIR2DS4 /// KIR3DL3 /// KIR3DL3 /// KIR3DS1 (11738374_at) / RFU C1QL1 (11718748_at) / Fold change /veh C1QL1 (11718748_at) / RFU TMPRSS4 (11747572_a_at) / Fold change /veh TMPRSS4 (11747572_a_at) / RFU HAMP (11756126_x_at) / Fold change /veh HAMP (11756126_x_at) / RFU RNFT2 (11725882_a_at) / Fold change /veh RNFT2 (11725882_a_at) / RFU NR4A2 (11747474_a_at) / Fold change /veh NR4A2 (11747474_a_at) / RFU ABCC12 (11746883_a_at) / Fold change /veh ABCC12 (11746883_a_at) / RFU TMEM136 (11760407_x_at) / Fold change /veh TMEM136 (11760407_x_at) / RFU CLDN22 /// WWC2 (11732394_at) / Fold change /veh CLDN22 /// WWC2 (11732394_at) / RFU HLA-DPB1 (11760878_x_at) / Fold change /veh HLA-DPB1 (11760878_x_at) / RFU SPINT1 (11716480_a_at) / Fold change /veh SPINT1 (11716480_a_at) / RFU GAP43 (11754022_s_at) / Fold change /veh GAP43 (11754022_s_at) / RFU A4GNT (11735810_at) / Fold change /veh A4GNT (11735810_at) / RFU PRB3 (11715151_x_at) / Fold change /veh PRB3 (11715151_x_at) / RFU TUBB4B (11761932_at) / Fold change /veh TUBB4B (11761932_at) / RFU CAPN14 (11732068_a_at) / Fold change /veh CAPN14 (11732068_a_at) / RFU TMCC2 (11721928_a_at) / Fold change /veh TMCC2 (11721928_a_at) / RFU IRGQ (11745062_a_at) / Fold change /veh IRGQ (11745062_a_at) / RFU FAM174B (11720279_a_at) / Fold change /veh FAM174B (11720279_a_at) / RFU TMPRSS4 (11748680_a_at) / Fold change /veh TMPRSS4 (11748680_a_at) / RFU FAM212B (11763350_a_at) / Fold change /veh FAM212B (11763350_a_at) / RFU PLEKHG5 (11743358_a_at) / Fold change /veh PLEKHG5 (11743358_a_at) / RFU ZSCAN30 (11745921_a_at) / Fold change /veh ZSCAN30 (11745921_a_at) / RFU CMKLR1 (11741424_a_at) / Fold change /veh CMKLR1 (11741424_a_at) / RFU LOC101060620 /// MAPK8IP1 (11723275_at) / Fold change /veh LOC101060620 /// MAPK8IP1 (11723275_at) / RFU SPTSSB (11747773_x_at) / Fold change /veh SPTSSB (11747773_x_at) / RFU PRSS12 (11739890_at) / Fold change /veh PRSS12 (11739890_at) / RFU BIN1 (11741810_x_at) / Fold change /veh BIN1 (11741810_x_at) / RFU WNT11 (11732464_a_at) / Fold change /veh WNT11 (11732464_a_at) / RFU C10orf10 (11716521_a_at) / Fold change /veh C10orf10 (11716521_a_at) / RFU C5orf56 (11738089_at) / Fold change /veh C5orf56 (11738089_at) / RFU CYB561 (11721691_x_at) / Fold change /veh CYB561 (11721691_x_at) / RFU ANKRD19P (11752326_a_at) / Fold change /veh ANKRD19P (11752326_a_at) / RFU OR2T12 /// OR2T33 /// OR2T8 (11738714_s_at) / Fold change /veh OR2T12 /// OR2T33 /// OR2T8 (11738714_s_at) / RFU VCAN (11748164_a_at) / Fold change /veh VCAN (11748164_a_at) / RFU JSRP1 (11732532_at) / Fold change /veh JSRP1 (11732532_at) / RFU KRTAP10-11 (11738290_x_at) / Fold change /veh KRTAP10-11 (11738290_x_at) / RFU MYO3A (11730013_a_at) / Fold change /veh MYO3A (11730013_a_at) / RFU EBF3 (11725865_a_at) / Fold change /veh EBF3 (11725865_a_at) / RFU CAMK2N1 (11719241_x_at) / Fold change /veh CAMK2N1 (11719241_x_at) / RFU C5orf56 (11738088_a_at) / Fold change /veh C5orf56 (11738088_a_at) / RFU OLFML3 (11715873_a_at) / Fold change /veh OLFML3 (11715873_a_at) / RFU LOC100653217 /// NTM (11731650_a_at) / Fold change /veh LOC100653217 /// NTM (11731650_a_at) / RFU MAPK11 (11762145_a_at) / Fold change /veh MAPK11 (11762145_a_at) / RFU FIZ1 (11724087_x_at) / Fold change /veh FIZ1 (11724087_x_at) / RFU OASL (11726364_x_at) / Fold change /veh OASL (11726364_x_at) / RFU SOX15 (11748057_x_at) / Fold change /veh SOX15 (11748057_x_at) / RFU CD79A (11719716_a_at) / Fold change /veh CD79A (11719716_a_at) / RFU HIST1H1D (11736915_at) / Fold change /veh HIST1H1D (11736915_at) / RFU CASKIN2 (11723855_a_at) / Fold change /veh CASKIN2 (11723855_a_at) / RFU LOC730098 (11760151_x_at) / Fold change /veh LOC730098 (11760151_x_at) / RFU OR4N2 (11742367_at) / Fold change /veh OR4N2 (11742367_at) / RFU PRRT2 (11749266_a_at) / Fold change /veh PRRT2 (11749266_a_at) / RFU SNX32 (11753110_a_at) / Fold change /veh SNX32 (11753110_a_at) / RFU CDHR5 (11726645_a_at) / Fold change /veh CDHR5 (11726645_a_at) / RFU RCAN1 (11760418_a_at) / Fold change /veh RCAN1 (11760418_a_at) / RFU FAM167A (11723789_a_at) / Fold change /veh FAM167A (11723789_a_at) / RFU FAM26E (11764081_at) / Fold change /veh FAM26E (11764081_at) / RFU ISYNA1 (11749810_s_at) / Fold change /veh ISYNA1 (11749810_s_at) / RFU ACY1 (11761880_at) / Fold change /veh ACY1 (11761880_at) / RFU 11764098_at / Fold change /veh 11764098_at / RFU SAMD14 (11745864_x_at) / Fold change /veh SAMD14 (11745864_x_at) / RFU NPB (11741838_a_at) / Fold change /veh NPB (11741838_a_at) / RFU TMPRSS6 (11731388_a_at) / Fold change /veh TMPRSS6 (11731388_a_at) / RFU KRTAP10-2 (11738614_at) / Fold change /veh KRTAP10-2 (11738614_at) / RFU ARHGAP8 /// PRR5-ARHGAP8 (11727945_x_at) / Fold change /veh ARHGAP8 /// PRR5-ARHGAP8 (11727945_x_at) / RFU KRTAP5-7 /// NADSYN1 (11734609_at) / Fold change /veh KRTAP5-7 /// NADSYN1 (11734609_at) / RFU RASL12 (11751679_a_at) / Fold change /veh RASL12 (11751679_a_at) / RFU CDKN2B (11736163_a_at) / Fold change /veh CDKN2B (11736163_a_at) / RFU PRF1 (11729649_at) / Fold change /veh PRF1 (11729649_at) / RFU, ZNF638 /// ZNF638-IT1 / Fold change vs veh, ZNF638 /// ZNF638-IT1 / RFU, PANK3 / Fold change vs veh, PANK3 / RFU, SH3YL1 / Fold change vs veh, SH3YL1 / RFU, ZEB2 / Fold change vs veh, ZEB2 / RFU, NRIP1 / Fold change vs veh, NRIP1 / RFU, PTTG1IP / Fold change vs veh, PTTG1IP / RFU, CAPN2 / Fold change vs veh, CAPN2 / RFU, MED14 / Fold change vs veh, MED14 / RFU, SNORA58 / Fold change vs veh, SNORA58 / RFU, C1orf63 / Fold change vs veh, C1orf63 / RFU, LRRFIP1 / Fold change vs veh, LRRFIP1 / RFU, NDUFAF7 / Fold change vs veh, NDUFAF7 / RFU, SLC12A2 / Fold change vs veh, SLC12A2 / RFU, IBTK / Fold change vs veh, IBTK / RFU, ESF1 / Fold change vs veh, ESF1 / Fold change vs veh, TMEM50B / RFU, TAOK1 / Fold change vs veh, TAOK1 / RFU, ACBD3 / Fold change vs veh, ACBD3 / RFU, TMA16 / Fold change vs veh, TMA16 / RFU, RWDD3 / Fold change vs veh, RWDD3 / RFU, BCAT1 / Fold change vs veh, BCAT1 / RFU, EDEM3 / Fold change vs veh, EDEM3 / RFU, TMEM33 / Fold change vs veh, TMEM33 / RFU, WDR75 / Fold change vs veh, WDR75 / RFU, AHCTF1 / Fold change vs veh, AHCTF1 / RFU, TFRC / Fold change vs veh, TFRC / RFU, ZDHHC17 / Fold change vs veh, ZDHHC17 / RFU, NOM1 / Fold change vs veh, NOM1 / RFU, ARL8B / Fold change vs veh, ARL8B / RFU, ZBTB11 / Fold change vs veh, ZBTB11 / RFU, TAMM41 / Fold change vs veh, TAMM41 / RFU, KIAA1704 /// LOC100996395 / Fold change vs veh, KIAA1704 /// LOC100996395 / RFU, ING1 / Fold change vs veh, ING1 / RFU, TRMT61B / Fold change vs veh, TRMT61B / RFU, FUBP3 / Fold change vs veh, FUBP3 / RFU, TP53 / Fold change vs veh, TP53 / RFU, TNKS2 / Fold change vs veh, TNKS2 / RFU, ZFP14 / Fold change vs veh, ZFP14 / RFU, ACTR2 / Fold change vs veh, ACTR2 / RFU, PPP3R1 / Fold change vs veh, PPP3R1 / RFU, PIK3R1 / Fold change vs veh, PIK3R1 / RFU, HNRNPA1 / Fold change vs veh, HNRNPA1 / RFU, RNF170 / Fold change vs veh, RNF170 / RFU, ZNF28 / Fold change vs veh, ZNF28 / RFU, RNGTT / Fold change vs veh, RNGTT / RFU, OGT / Fold change vs veh, OGT / RFU, BRD1 / Fold change vs veh, BRD1 / RFU, MARS / Fold change vs veh, MARS / RFU, ZNF655 / Fold change vs veh, ZNF655 / RFU, FAHD1 / Fold change vs veh, FAHD1 / RFU, BDP1 / Fold change vs veh, BDP1 / RFU, LRRCC1 / Fold change vs veh, LRRCC1 / RFU, ARID1A / Fold change vs veh, ARID1A / RFU, ZNF146 / Fold change vs veh, ZNF146 / RFU, ZNF330 / Fold change vs veh, ZNF330 / RFU, GPN3 / Fold change vs veh, GPN3 / RFU, C9orf123 / Fold change vs veh, C9orf123 / RFU, N4BP2L2 / Fold change vs veh, N4BP2L2 / RFU, ARFIP1 / Fold change vs veh, ARFIP1 / RFU, FAM179B / Fold change vs veh, FAM179B / RFU, BCL10 / Fold change vs veh, BCL10 / RFU, UHRF1BP1L / Fold change vs veh, UHRF1BP1L / RFU, BET1 / Fold change vs veh, BET1 / RFU, CNOT2 / Fold change vs veh, CNOT2 / RFU, ZNF268 / Fold change vs veh, ZNF268 / Fold change vs veh, ZNF507 / RFU, DGCR2 / Fold change vs veh, DGCR2 / RFU, WDSUB1 / Fold change vs veh, WDSUB1 / Fold change vs veh, HSP90B1 /// MIR3652 / RFU, ADSS / Fold change vs veh, ADSS / RFU, GK / Fold change vs veh, GK / RFU, ZNF148 / Fold change vs veh, ZNF148 / RFU, TAF9 / Fold change vs veh, TAF9 / RFU, SLC1A5 / Fold change vs veh, SLC1A5 / RFU, SLMO2 / Fold change vs veh, SLMO2 / RFU, ABCC4 / Fold change vs veh, ABCC4 / RFU, LOC101060439 /// RAP1B / Fold change vs veh, LOC101060439 /// RAP1B / RFU, RFX7 / Fold change vs veh, RFX7 / RFU, GTPBP10 / Fold change vs veh, GTPBP10 / RFU, CNEP1R1 / Fold change vs veh, CNEP1R1 / RFU, BIVM-ERCC5 /// ERCC5 / Fold change vs veh, BIVM-ERCC5 /// ERCC5 / RFU, ILF3 / Fold change vs veh, ILF3 / RFU 11762660_at / Fold change /veh 11762660_at / RFU VCAN (11757783_s_at) / Fold change /veh VCAN (11757783_s_at) / RFU DDX43 (11728927_at) / Fold change /veh DDX43 (11728927_at) / RFU KRT8 (11758188_x_at) / Fold change /veh KRT8 (11758188_x_at) / RFU NKD1 (11759106_at) / Fold change /veh NKD1 (11759106_at) / RFU SRD5A1 (11742802_a_at) / Fold change /veh SRD5A1 (11742802_a_at) / RFU TPSAB1 /// TPSB2 (11721975_s_at) / Fold change /veh TPSAB1 /// TPSB2 (11721975_s_at) / RFU GSTM3 (11746129_a_at) / Fold change /veh GSTM3 (11746129_a_at) / RFU IL23R (11737362_x_at) / Fold change /veh IL23R (11737362_x_at) / RFU TMEM51 (11727254_a_at) / Fold change /veh TMEM51 (11727254_a_at) / RFU PIWIL2 (11732686_x_at) / Fold change /veh PIWIL2 (11732686_x_at) / RFU ORM1 (11744905_x_at) / Fold change /veh ORM1 (11744905_x_at) / RFU CCDC152 (11743942_at) / Fold change /veh CCDC152 (11743942_at) / RFU ECM1 (11717891_a_at) / Fold change /veh ECM1 (11717891_a_at) / RFU IL23R (11748794_a_at) / Fold change /veh IL23R (11748794_a_at) / RFU TNFAIP8L3 (11732012_x_at) / Fold change /veh TNFAIP8L3 (11732012_x_at) / RFU MBOAT4 (11741988_at) / Fold change /veh MBOAT4 (11741988_at) / RFU 11764193_at / Fold change /veh 11764193_at / RFU TMEM53 (11763286_at) / Fold change /veh TMEM53 (11763286_at) / RFU MAGEB2 (11727129_at) / Fold change /veh MAGEB2 (11727129_at) / RFU TMEM200A (11744735_a_at) / Fold change /veh TMEM200A (11744735_a_at) / RFU CCDC152 (11751479_a_at) / Fold change /veh CCDC152 (11751479_a_at) / RFU FAM211A (11726209_a_at) / Fold change /veh FAM211A (11726209_a_at) / RFU RGS16 (11746705_a_at) / Fold change /veh RGS16 (11746705_a_at) / RFU VCAN (11755009_s_at) / Fold change /veh VCAN (11755009_s_at) / RFU RHOB (11743442_s_at) / Fold change /veh RHOB (11743442_s_at) / RFU RGS16 (11720943_a_at) / Fold change /veh RGS16 (11720943_a_at) / RFU RGS16 (11720944_at) / Fold change /veh RGS16 (11720944_at) / RFU, VPS4B / Fold change vs veh, VPS4B / RFU, CREB1 / Fold change vs veh, CREB1 / RFU, DNAJC13 / Fold change vs veh, DNAJC13 / RFU, GNAQ / Fold change vs veh, GNAQ / RFU, CDK5R1 / Fold change vs veh, CDK5R1 / RFU, ZRANB3 / Fold change vs veh, ZRANB3 / RFU, CUL4A / Fold change vs veh, CUL4A / RFU, CCNY / Fold change vs veh, CCNY / RFU, UFL1 / Fold change vs veh, UFL1 / RFU, COG3 / Fold change vs veh, COG3 / RFU, DIAPH2 / Fold change vs veh, DIAPH2 / RFU, SKA2 / Fold change vs veh, SKA2 / RFU, AFF3 / Fold change vs veh, AFF3 / RFU, LMF1 / Fold change vs veh, LMF1 / RFU, IPO11 / Fold change vs veh, IPO11 / RFU, DFFB / Fold change vs veh, DFFB / RFU, FOXP1 / Fold change vs veh, FOXP1 / RFU, CARD8 / Fold change vs veh, CARD8 / RFU, STRN3 / Fold change vs veh, STRN3 / RFU, ADK / Fold change vs veh, ADK / RFU, RASSF2 / Fold change vs veh, RASSF2 / RFU, WIPF1 / Fold change vs veh, WIPF1 / RFU, LARP1B / Fold change vs veh, LARP1B / RFU, RASA1 / Fold change vs veh, RASA1 / RFU, RB1 / Fold change vs veh, RB1 / RFU, PPFIA1 / Fold change vs veh, PPFIA1 / RFU, MAT2A / Fold change vs veh, MAT2A / RFU, CCT5 / Fold change vs veh, CCT5 / RFU, WDR92 / Fold change vs veh, WDR92 / RFU, CUX1 / Fold change vs veh, CUX1 / RFU, TTC7A / Fold change vs veh, TTC7A / RFU, TMEM135 / Fold change vs veh, TMEM135 / RFU, DEPTOR / Fold change vs veh, DEPTOR / RFU, CPM / Fold change vs veh, CPM / RFU, DNAJB6 / Fold change vs veh, DNAJB6 / RFU, CACNA2D3 / Fold change vs veh, CACNA2D3 / RFU, DTX4 / Fold change vs veh, DTX4 / RFU, TFCP2 / Fold change vs veh, TFCP2 / RFU, GMCL1 /// GMCL1P1 / Fold change vs veh, GMCL1 /// GMCL1P1 / RFU, AEBP2 / Fold change vs veh, AEBP2 / RFU, SNHG1 /// SNORD22 /// SNORD25 /// SNORD26 /// SNORD27 /// SNORD28 /// SNORD29 /// SNORD31 / Fold change vs veh, SNHG1 /// SNORD22 /// SNORD25 /// SNORD26 /// SNORD27 /// SNORD28 /// SNORD29 /// SNORD31 / Fold change (Aza/veh), C12orf56 (ProbeSet 11735607_a_at) / Fold change (ACY-1035/veh), C12orf56 (ProbeSet 11735607_a_at) / Fold change (Aza/veh), FGFR1OP (ProbeSet 11751329_s_at) / Fold change (ACY-1035/veh), FGFR1OP (ProbeSet 11751329_s_at) / Fold change (Aza/veh), VPS36 (ProbeSet 11739960_a_at) / Fold change (ACY-1035/veh), VPS36 (ProbeSet 11739960_a_at) / RFU SYPL1 (11715823_x_at) / Fold change /veh SYPL1 (11715823_x_at) / RFU IGFBP7 (11715501_s_at) / Fold change /veh IGFBP7 (11715501_s_at) / RFU REEP3 (11722064_at) / Fold change /veh REEP3 (11722064_at) / RFU IGLL1 (11728026_x_at) / Fold change /veh IGLL1 (11728026_x_at): dose or concentration left out as unconfirmed. The note with it: ProbeSet 11725100_s_at; LIST B.

Each structure is given as a SMILES string.

Take `Nc1ncn([C@@H]2O[C@H](CO)[C@@H](O)[C@H]2O)c(=O)n1` [azacitidine]: the “Fold change vs veh, ESF1” value was 0.96.
